Structures can show the parent of a compound that is named as a salt.
Legend:
[1] = biological target: T1, human CK1δ transcription variant 1 (Homo sapiens, UniProt P48730); assay: in-vitro kinase assay CK1δ; type: biochemical; settings: 10 µM ATP, mean ± SD, n = 3; for remaining activity at 10 µM: read-out: CK1δ Residual Activity [%] at 10 µM ± SD
T1 construct: made in house; own knowledge
Text: Human CK1δ transcription variant 1 (CK1δ TV1_NM_001893.4) has been amplified from the cDNA obtained from HT1080 cell line, using CK1δ_forward-primer: 5′-GGATCCATGGAGCTGAGAGTCGGGAACAG-3′ and CK1δ_reverse primer: 5′-GGATCCTCATCGGTGCACGACAGACTGA-3′. The CK1δ DNA construct was cloned into pSC-A cloning vector (Agilent technologies, Munich, Germany) with BamHI enzyme, to generate plasmids pGEX6-P3-GST-CK1δ TV1 (FP1417). Overexpression and purification of GST-CK1δ TV1 protein has been performed as described before.
(§1) In vitro kinase assays have been performed to both screen, as well as to calculate IC50 values of the compounds for CK1δ and ε. Each reaction was carried out using 2 μCi ^32P-γ-ATP in kinase buffer containing 25 mM Tris-HCl (pH = 7.5), 10 mM MgCl2, 100 µM EDTA, and 10 µM ATP. […] Recombinant human CK1δ transcription variant 1 (expressed and purified as GST fusion protein as described earlier) and human GST-CK1ε (PV3500; Invitrogen) were used as sources of enzyme, while α-casein (C6780; Sigma-Aldrich) was used as substrate. Kinase reactions were incubated for 30 min at 30 °C and then stopped with loading dye (50 mM Tris-HCl (pH = 6.8), 5% (v/v) β-mercaptoethanol (MSH), 10% (v/v) glycerol, 2% (w/v) sodium dodecyl sulfate (SDS), 0.1% (w/v) bromphenol blue). Subsequently, reactions were separated by sodium dodecyl sulfate polyacrylamide gel electrophoresis (SDS-PAGE) and phosphorylated protein bands were visualized on dried gels by autoradiography. The phosphorylated substrate protein bands were excised, and phosphorylation was quantified by Cherenkov counting. Dose-response analyses and calculation of IC50 values were carried out using GraphPad Prism 6 statistical software (San Diego, CA, USA).

human GST-CK1ε = biological target: T2, human GST-CK1ε (Homo sapiens, UniProt P49674); assay: in-vitro kinase assay CK1ε; type: biochemical; settings: 10 µM ATP, mean ± SD, n = 3; for remaining activity at 10 µM: read-out: CK1ε Residual Activity [%] at 10 µM ± SD
T2 construct: purchased Invitrogen PV3500
Protocol: as §1

[2] = MTT cell viability assay MCF-7; type: cell-based, human; settings: human, MCF-7 cells, mean ± SD
Protocol: (§2) The human colon adenocarcinoma cell line HT-29 was grown in McCoy’s 5A medium, whereas MCF7 cells were grown in DMEM medium. All media were supplemented with 10% fetal calf serum (FCS), 100 units/mL penicillin, 100 µg/mL streptomycin and 2 mM glutamine. All cells were grown at 37 °C in a humidified 5% carbon dioxide atmosphere.
(§3) In order to analyze the effects of selected inhibitors on the cell viability of HT-29 and MCF7 cells, MTT assays were performed. 1 × 10^4 cells/well were seeded in 96-well cell culture plates. After 24 h cells were treated with increasing concentrations of the indicated inhibitor compounds, with untreated and DMSO-treated cells as control. After an incubation period of 48 h, 10 µL of MTT solution (5 mg/mL in PBS) were added and cells were incubated for 4 h. MTT-containing medium was carefully removed and 100 µL acidic isopropanol (0.04 N HCl in isopropanol) per well were added. To dissolve formazan crystals, plates were shaken for 30 min on an orbital shaker in the dark. Finally, dissolved crystals were measured spectrophotometrically at 570 nm. All experiments were performed in triplicate with four technical replicates per assay. Results were normalized considering the mean optical density value of control wells as 100%. GraphPad Prism 6 software (San Diego, CA, USA) was used to calculate EC50 values.

[3] = MTT cell viability assay HT-29; type: cell-based, human; settings: human, HT-29 cells, mean ± SD
Protocol: as §2, §3

MCF-7 cells = assay: MTT cell viability assay MCF-7; type: cell-based, human; settings: mean ± SD
Protocol: as §2, §3

HT-29 cells = assay: MTT cell viability assay HT-29; type: cell-based, human; settings: mean ± SD
Protocol: as §2, §3

[4] = LC-MS of aqueous solutions with and without PEG; type: physicochemical; settings: LC-MS over 7 days, not in solutions without PEG
Text: Since all analytical data for the originally employed inhibitors was consistent with the given structures, we postulate that the incorporation of an additional methylene group occurred via spontaneous Pictet-Spengler cyclization during crystallization. In line with this notion, PEG, which has been used in our soaking solutions, is known to generate formaldehyde traces that have been shown in the past to affect the derivatization of both, proteins and ligands. To further corroborate this hypothesis, we examined whether simple exposure of 29d/e to formaldehyde would give rise to the same Pictet-Spengler products 31a/b (Scheme 5). Indeed, when compounds 29d/e were treated with formaldehyde at room temperature 31a/b were formed readily and the obtained spectroscopic data was consistent with the predicted Pictet-Spengler products. In addition, aqueous solutions of 29d and 29e with and without PEG were analyzed by liquid chromatography-mass spectrometry (LC-MS) over a period of 7 days.
LC-MS was performed with a Bruker Esquire ~LC ion trap mass spectrometer (Bremen, Germany) in the positive ion mode (dry gas 9 L/min, nebulizer 35 psi, drying temperature 350 °C) after chromatographic separation using an Agilent 1100 HPLC system (Waldbronn, Germany) with a RP-8 column (Agilent Eclipse XDB-C8, 150 × 4.6 mm, 5 μm) and a 0.1% acetic acid/acetonitrile gradient.

IRAK4 = settings: cited from earlier work

T2 sequence (P49674 whole entry): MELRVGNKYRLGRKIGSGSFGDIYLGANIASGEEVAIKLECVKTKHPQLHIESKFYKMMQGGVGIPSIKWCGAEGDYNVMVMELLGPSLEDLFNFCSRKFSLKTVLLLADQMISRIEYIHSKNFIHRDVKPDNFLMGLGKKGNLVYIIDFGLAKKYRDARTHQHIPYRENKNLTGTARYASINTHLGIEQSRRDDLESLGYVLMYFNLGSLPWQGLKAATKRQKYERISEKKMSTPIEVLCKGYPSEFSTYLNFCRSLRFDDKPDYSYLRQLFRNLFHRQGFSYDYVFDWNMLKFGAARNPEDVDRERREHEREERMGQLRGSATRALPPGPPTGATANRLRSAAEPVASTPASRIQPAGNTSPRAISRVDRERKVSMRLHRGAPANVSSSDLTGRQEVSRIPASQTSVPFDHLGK

COc1ccc(-c2cc(C(=O)Nc3cc(-c4c(-c5ccc(F)cc5)noc4C(C)C)ccn3)n(CC3NCC(O)C3O)c2)cc1 (centres unmarked) (as salt: trifluoroacetate) [29d]
melting point: 191 to 193 °C

COc1ccc(-c2cc(C(=O)Nc3cc(-c4c(-c5ccc(F)cc5)noc4C(C)C)ccn3)n(CC3NCC(O)C3O)c2)cc1 (centres unmarked) (as salt: trifluoroacetate) [29e]
melting point: 188 to 191 °C

COc1ccc(-c2cc(C(=O)Nc3cc(-c4c(-c5ccc(F)cc5)noc4C(C)C)ccn3)n(C)c2)cc1 [28a, N-{4-[3-(4-Fluorophenyl)-5-isopropylisoxazol-4-yl]pyridin-2-yl}-4-(4-methoxyphenyl)-1-methyl-1H-pyrrole-2-carboxamide]
remaining activity at 10 µM ([1]; 10 µM compound): 48 ± 7%
remaining activity at 10 µM (human GST-CK1ε; 10 µM compound): 70 ± 21%
viability at 48 h, 5 µM [2]: 103 ± 16%
viability at 48 h, 10 µM [2]: 88 ± 9%
viability at 48 h, 20 µM [2]: 54 ± 5%
viability at 48 h, 5 µM [3]: 111 ± 19%
viability at 48 h, 10 µM [3]: 98 ± 22%
viability at 48 h, 20 µM [3]: 78 ± 10%
melting point: 157 to 158 °C

COc1ccc(-c2cc(C(=O)Nc3cc(-c4c(-c5ccc(F)cc5)noc4C(C)C)ccn3)n(C)c2)c(OC)c1 [28b, 4-(2,4-Dimethoxyphenyl)-N-{4-[3-(4-fluorophenyl)-5-isopropylisoxazol-4-yl]pyridin-2-yl}-1-methyl-1H-pyrrole-2-carboxamide]
remaining activity at 10 µM ([1]; 10 µM compound): 48 ± 4%
remaining activity at 10 µM (human GST-CK1ε; 10 µM compound): 47 ± 11%
viability at 48 h, 5 µM [2]: 89 ± 13%
viability at 48 h, 10 µM [2]: 84 ± 11%
viability at 48 h, 20 µM [2]: 79 ± 12%
viability at 48 h, 5 µM [3]: 94 ± 23%
viability at 48 h, 10 µM [3]: 59 ± 14%
viability at 48 h, 20 µM [3]: 52 ± 10%

CC(C)c1onc(-c2ccc(F)cc2)c1-c1ccnc(NC(=O)c2cccn2C[C@H]2NC[C@H](O)[C@@H]2O)c1 [29c, (2R,3R,4S)-2-{[2-({4-[3-(4-Fluorophenyl)-5-isopropylisoxazol-4-yl]pyridin-2-yl}carbamoyl)-1H-pyrrol-1-yl]methyl}-3,4-dihydroxypyrrolidin-1-ium trifluoroacetate]
IC50 [1]: 0.45 ± 0.07 µM
remaining activity at 10 µM ([1]; 10 µM compound): 7.7 ± 0.2%
IC50 (human GST-CK1ε): 1.5 ± 0.3 µM
remaining activity at 10 µM (human GST-CK1ε; 10 µM compound): 18 ± 1%
viability at 48 h, 5 µM [2]: 90 ± 10%
viability at 48 h, 10 µM [2]: 81 ± 5%
EC50 (MCF-7 cells; Homo sapiens, MCF7, 48 h): 39000 ± 12000 nM
viability at 48 h, 5 µM [3]: 80 ± 16%
viability at 48 h, 10 µM [3]: 78 ± 11%
EC50 (HT-29 cells; Homo sapiens, HT-29, 48 h): 24000 ± 6000 nM

COc1ccc(-c2cc(C(=O)Nc3cc(-c4c(-c5ccc(F)cc5)noc4C(C)C)ccn3)n(CC3NCC(O)C3O)c2)cc1 (centres unmarked) [29e]
IC50 [1]: 0.047 ± 0.004 µM
CK1δ Residual Activity [%] at 10 µM ± SD ([1]; 10 µM compound): 3.4 ± 0.7%
IC50 (human GST-CK1ε): 0.063 ± 0.009 µM
CK1ε Residual Activity [%] at 10 µM ± SD (human GST-CK1ε; 10 µM compound): 14 ± 3%
MCF-7 Cell Viability [%] 5 µM (MCF-7 cells; 5 µM, 48 h): 90 ± 27%
MCF-7 Cell Viability [%] 10 µM (MCF-7 cells; 10 µM, 48 h): 58 ± 18%
MCF-7 Cell Viability [%] 20 µM (MCF-7 cells; 20 µM, 48 h): 8.0 ± 3.4%
EC50 (MCF-7 cells; 48 h): 10000 ± 2000 nM
HT-29 Cell Viability [%] 5 µM (HT-29 cells; 5 µM, 48 h): 75 ± 13%
HT-29 Cell Viability [%] 10 µM (HT-29 cells; 10 µM, 48 h): 42 ± 10%
HT-29 Cell Viability [%] 20 µM (HT-29 cells; 20 µM, 48 h): 11 ± 3%
EC50 (HT-29 cells; 48 h): 8800 ± 800 nM
formation of Pictet-Spengler products in aqueous solution with PEG [4]: significant product formation

COc1ccc(-c2cc(C(=O)Nc3cc(-c4c(-c5ccc(F)cc5)noc4C(C)C)ccn3)n(C[C@H]3NC[C@H](O)[C@@H]3O)c2)c(OC)c1 [29f]
IC50 [1]: 0.037 ± 0.004 µM
remaining activity at 10 µM ([1]; 10 µM compound): 2.8 ± 0.5%
IC50 (human GST-CK1ε): 0.1 ± 0.014 µM
remaining activity at 10 µM (human GST-CK1ε; 10 µM compound): 9.7 ± 1.6%
viability at 5 µM (MCF-7 cells; Homo sapiens, MCF7, 48 h, 5 µM): 87 ± 5%
viability at 10 µM (MCF-7 cells; Homo sapiens, MCF7, 48 h, 10 µM): 33 ± 7%
viability at 20 µM (MCF-7 cells; Homo sapiens, MCF7, 48 h, 20 µM): 3.9 ± 0.2%
EC50 (MCF-7 cells; Homo sapiens, MCF7, 48 h): 9600 ± 800 nM
viability at 5 µM (HT-29 cells; Homo sapiens, HT-29, 48 h, 5 µM): 50 ± 10%
viability at 10 µM (HT-29 cells; Homo sapiens, HT-29, 48 h, 10 µM): 25 ± 5%
viability at 20 µM (HT-29 cells; Homo sapiens, HT-29, 48 h, 20 µM): 9.4 ± 3%
EC50 (HT-29 cells; Homo sapiens, HT-29, 48 h): 5400 ± 400 nM

COc1ccc(-c2cc(C(=O)Nc3cc(-c4c(-c5ccc(F)cc5)noc4C(C)C)ccn3)n3c2CN2C[C@H](O)[C@H](O)[C@H]2C3)cc1 [31a, (1R,2S,10aR)-N-{4-[3-(4-Fluorophenyl)-5-isopropylisoxazol-4-yl]pyridin-2-yl}-1,2-dihydroxy-6-(4-methoxyphenyl)-2,3,10,10a-tetrahydro-1H,5H-dipyrrolo[1,2-a:1’,2’-d]pyrazine-8-carboxamide]
IC50 [1]: 0.011 ± 0.001 µM
IC50 (human GST-CK1ε): 0.056 ± 0.005 µM
EC50 (MCF-7 cells; 48 h): 1300 ± 200 nM
EC50 (MCF-7 cells; Homo sapiens, MCF7, 48 h): < 2000 nM
EC50 (HT-29 cells; 48 h): 1100 ± 100 nM
EC50 (HT-29 cells; Homo sapiens, HT-29, 48 h): < 2000 nM

COc1ccc(-c2cc(C(=O)Nc3cc(-c4c(-c5ccc(F)cc5)noc4C(C)C)ccn3)n3c2CN2C[C@@H](O)[C@@H](O)[C@@H]2C3)cc1 [31b, (1S,2R,10aS)-N-{4-[3-(4-Fluorophenyl)-5-isopropylisoxazol-4-yl]pyridin-2-yl}-1,2-dihydroxy-6-(4-methoxyphenyl)-2,3,10,10a-tetrahydro-1H,5H-dipyrrolo[1,2-a:1’,2’-d]pyrazine-8-carboxamide]
IC50 [1]: 0.024 ± 0.004 µM
IC50 (human GST-CK1ε): 0.196 ± 0.026 µM
EC50 (MCF-7 cells; 48 h): 1900 ± 300 nM
EC50 (MCF-7 cells; Homo sapiens, MCF7, 48 h): < 2000 nM
EC50 (HT-29 cells; 48 h): 1400 ± 200 nM
EC50 (HT-29 cells; Homo sapiens, HT-29, 48 h): < 2000 nM

Cc1cc(Nc2ncc(-c3nc4ccncc4s3)c(N[C@@H]3C[C@H](CO)[C@@H](O)[C@H]3O)n2)cc(C)n1 [compound 4]
IC50 (IRAK4): 0.3 nM

Source: paper PMC6429214, “Design, Synthesis and Biological Evaluation of Isoxazole-Based CK1 Inhibitors Modified with Chiral Pyrrolidine Scaffolds” (Molecules, 2019)
